Measurements published in paper PMC9268166, “Modeling of Anticancer Sulfonamide Derivatives Lipophilicity by Chemometric and Quantitative Structure-Retention Relationships Approaches” (Molecules, 2022).

Legend:
[1] = Phenyl (Ph) chromatography, logkw from two gradients with DryLab; assay type: physicochemical; conditions: for logkw, Table S6: Phenyl chromatography, pH 7.4, short and long gradient; for logkwPh: pH 7.4, 40 °C, retention factor extrapolated to 0% organic modifier
From the text: (§1) For this reason, the next step of our study concerns the characterization of investigated sulfonamide derivatives using a chromatographic approach. Generally, in RP-HPLC, the interactions between solutes and the stationary phase surface are mainly governed by lipophilicity. Consequently, RP-HPLC is the primary tool for assessing the lipophilicity of xenobiotics. […] Generally, the chemical character of target solutes determines interactions between the molecule and the stationary phase that may occur. Considering the large variety of RP-HPLC beds and differences in specific surface area, the energy of the sorbent’s intermolecular interactions between solutes and chemical structures, four different reversed-phase stationary phases and IAM column were investigated during this study. The lipophilicity index was presented as a logkw value, so the retention factor was extrapolated to the pure water after calculation using a protocol based on two gradient measurements and DryLab software.
(§2) Since the biomimetic chromatography experiments are carried out at physiological pH to compare obtained results, all chromatographic experiments have been carried out at pH 7.4. […] Consequently, the chromatography lipophilicity indices refer to the distribution coefficient (logD) values, which better reflect the lipophilicity of ionized substances under physiological conditions.
(§3) For C8, cyanopropyl, and phenyl chromatography, according to the assumption proposed by Snyder and co-workers, appropriate logkw values (i.e., the retention factor logk extrapolated to 0% organic modifier, as an alternative to logP) were obtained. […] Dwell volume for these HPLC systems was measured at 0.780 mL, whereas the obtained dead times for used HPLC columns were equal to 1.530 min, 1.252 min, and 2.335 min for C8, SB-CN, and UK-Phenyl, respectively. The mobile phase was ammonium acetate buffer (50 mM) at pH 7.4 and acetonitrile as an organic modifier in each system. C8 chromatography was performed on Unison UK-C8 column (150 × 2 mm; 3.0 µm. Imtakt; USA) with 0.3 mL/min flow rate. Analyses were carried out in linear gradient from 30 to 100% within 15 min in short gradient and 30 min in long gradient. The Agilent SB-CN column (150 × 4.6 mm; 3.5 µm; Zorbax; USA) was used for the cyanopropyl chromatography. The CN chromatography analyses were carried out in linear gradient from 20 to 100%, which was applied from 0 to 20 min in short gradient, and from 0 to 40 min in long gradient. The flow rate was 1.5 mL/min. The column Unison UK-Phenyl (150 × 2 mm; 3.0 µm; Imtakt; USA) was used to perform phenyl chromatography. The flow rate was set to 0.2 mL/min. The phenyl analyses were carried out in linear gradient from 40 to 100%, which was applied from 0 to 20 min in short gradient, and from 0 to 40 min in long gradient. Each HPLC analysis was run in triplicate; in Tables S2–S6, obtained retention times are listed, whereas representative chromatograms are shown in Figure 9.

[2] = Cyanopropyl (CN) chromatography, logkw from two gradients with DryLab; assay type: physicochemical; conditions: for logkw, Table S5: Cyanopropyl chromatography, pH 7.4, short and long gradient; for logkwCN: pH 7.4, 40 °C, retention factor extrapolated to 0% organic modifier
From the text: as §1, §2, §3

[3] = C18 chromatography (RP-HPLC), chromatographic hydrophobicity index; assay type: physicochemical; conditions: for chromatographic logD: Waters Symmetry C18 column, CHI log D = 0.0525 CHIC18 − 1.467, pH 7.4; for CHIC18: pH 7.4, 40 °C, acetonitrile gradient
From the text: as §1, §2
(§4) All HPLC experiments were carried out using a Prominence-1 LC-2030C 3D HPLC system (Shimadzu, Japan) equipped with a DAD detector and controlled by the LabSolution system (version 5.90 Shimadzu, Japan). The stock solutions of solutes were diluted to obtain 100 μg/mL concentrations, and the injected volume was 10 μL. During this study, six different columns in terms of chemical modification of stationary phases were used. Retention times (tR) of investigated sulfonamides were collected, and their detection in all systems was performed at the wavelength characteristic for each compound, summarized in Table S1. For all chromatography systems, analysis was carried out at 40 °C, except for IAM chromatography, in which oven temperature was set to 30 °C. The CHIIAM and CHI18 indices of the target sulfonamides derivatives were obtained using the protocol proposed by Valko and co-workers. C18 chromatography was performed on a Waters-C18 column (150 mm × 3.9 mm; 5.0 µm; Symmetry; USA), with a 1.5 mL/min flow rate. The mobile phase was ammonium acetate buffer (50 mM) at pH 7.4 and acetonitrile as an organic modifier. The linear gradient from 2 to 98% ACN was applied from 0 to 30 min. IAM chromatography was executed on an IAM.PC.DD2 column ([…] × 4.6 mm; 10.0 µm; Regis Technologies, Morton Grove, IL, USA) additionally equipped with an IAM guard column with the same flow rate of 1.5 mL/min. The mobile phase was sodium phosphate buffer (10 mM) at pH 7.4 and acetonitrile as the organic phase. The linear gradient from 0 to 85% was applied within 5.25 min.

[4] = test system: human colon cancer (HCT-116); design: method as in PMID 29772699, PMID 28122174, PMID 27338337, PMID 26506328; conditions: HCT-116 cell line; cited from earlier work
[5] = IAM chromatography (IAM-HPLC), IAM.PC.DD2 column; assay type: physicochemical; conditions: for logkIAM: logkIAM = 0.045 CHIIAM + 0.42; for CHIIAM: pH 7.4, 30 °C, acetonitrile gradient; for CHI (CHIIAM), Table S2: IAM chromatography, from mean of three retention times
From the text: as §1, §2, §4

[6] = C8 chromatography (RP-HPLC), logkw from two gradients with DryLab; assay type: physicochemical; conditions: for logkw, Table S4: C8 chromatography, pH 7.4, short and long gradient; for logkwC8: pH 7.4, 40 °C, retention factor extrapolated to 0% organic modifier
From the text: as §1, §2, §3

Row | Structure (SMILES) | logkw, Table S6 [1] | logkwPh [1] | logkw, Table S5 [2] | logkwCN [2] | chromatographic logD [3] | CHIC18 [3] | pIC50 [4] | logkIAM ([5]; pH 7.4) | CHIIAM [5] | logkw, Table S4 [6] | logkwC8 [6] | CHI (CHIIAM), Table S2 ([5]; pH 7.4) | lipophilicity rank by the chromatographic experiments ([5]; based on the experimental data of all chromatographic systems, pH 7.4)
1 | COc1ccc(-c2cnnc(NS(=O)(=O)c3cc(C(=O)Nc4ccc(Cl)cc4)c(Cl)cc3SCc3ccccc3)n2)cc1 [Compound 16] | 4.476 | 4.48 | 2.471 | 2.47 | 3.04 | 85.90 | 4.12 | 2.21 | 39.80 | 4.380 | 4.38 |  | 
2 | Cc1cc(S(=O)(=O)Nc2nncc(-c3cccc(F)c3)n2)c(SCc2ccccc2)cc1Cl [Compound 13] | 3.532 | 3.53 | 2.037 | 2.04 | 2.62 | 77.90 | 4.12 | 2.09 |  | 4.030 | 4.03 | 37.1 | 
3 | O=S(=O)(Nc1cccc2nsnc12)c1ccc(-n2cccc2)cc1 [Compound 5] | 4.079 | 4.08 | 2.300 | 2.30 | 2.89 | 82.90 | 4.64 | 1.83 |  | 4.055 | 4.06 | 31.4 | 
4 | Cc1ccnc(NS(=O)(=O)c2ccc(-n3cccc3)cc2)n1 [Compound 1] | 2.620 | 2.62 | 1.580 | 1.58 | 1.51 | 56.70 | 4.34 | 1.28 |  | 2.980 | 2.98 | 19.2 | least lipophilic
5 | COc1ccc(-c2cnnc(NS(=O)(=O)c3cc(C)c(Cl)cc3SCc3ccc(C(F)(F)F)cc3)n2)cc1 [Compound 25] | 3.886 | 3.89 | 2.330 | 2.33 | 2.96 | 84.40 | 4.17 | 2.09 |  | 4.260 | 4.26 | 37.2 | 
6 | Cc1cc(S(=O)(=O)Nc2nncc(-c3ccc(C(F)(F)F)cc3)n2)c(SCc2ccc(C(F)(F)F)cc2)cc1Cl [Compound 21] | 4.480 | 4.48 | 2.110 | 2.11 | 3.34 | 91.60 | 4.29 | 2.28 | 41.30 | 4.440 | 4.44 |  | 
7 | O=S(=O)(Nc1ccc(Cl)cc1)c1ccc(-n2cccc2)cc1 [Compound 6] | 5.391 | 5.39 | 2.892 | 2.89 | 3.5 | 94.70 | 4.15 | 2.46 |  | 4.609 | 4.61 | 45.4 | 
8 | COc1ccc(-c2cnnc(NS(=O)(=O)c3cc(C)c(Cl)cc3SCc3cccc4ccccc34)n2)cc1 [Compound 23] | 4.401 | 4.40 | 2.478 | 2.48 | 3.05 | 86.10 | 4.42 | 2.27 |  | 4.120 | 4.12 | 41.1 | 
9 | Cc1cc(S(=O)(=O)Nc2nncc(-c3cccc(F)c3)n2)c(SCc2ccc(C(F)(F)F)cc2)cc1Cl [Compound 24] | 4.088 | 4.09 | 2.277 | 2.28 | 3.13 | 87.50 | 4.17 | 2.14 |  | 4.256 | 4.26 | 38.3 | 
10 | Cc1cc(S(=O)(=O)Nc2nnc(Cc3ccccc3)c(=O)[nH]2)c(SCc2cc3c(cc2Cl)OCO3)cc1Cl [Compound 11] | 3.824 | 3.82 | 2.130 | 2.13 | 2.75 | 80.30 | 4.06 | 2.02 |  | 4.074 | 4.07 | 35.5 | 
11 | Cc1ccc2cccnc2c1NS(=O)(=O)c1ccc(-n2cccc2)cc1 [Compound 3] | 5.556 | 5.56 | 2.966 | 2.97 | 3.51 | 94.80 | 4.72 | 2.31 |  | 4.593 | 4.59 | 42.0 | 
12 | COc1ccc(-c2cnnc(NS(=O)(=O)c3cc(C(=O)Nc4ccc(C)cc4)c(Cl)cc3SCc3ccccc3)n2)cc1 [Compound 18] | 4.228 | 4.23 | 2.358 | 2.36 | 2.88 | 82.80 | 4.12 | 2.11 | 37.50 | 4.280 | 4.28 |  | 
13 | CC(=O)NS(=O)(=O)c1cc(C)c(Cl)cc1SCc1cccc2ccccc12 [Compound 26] | 2.870 | 2.87 | 1.763 | 1.76 | 2.95 | 84.10 |  | 1.80 |  | 3.655 | 3.66 | 30.6 | 
14 | Cc1cc(S(=O)(=O)NC(=O)C=Cc2ccccc2)c(SCc2cccc3ccccc23)cc1Cl [Compound 27] | 4.460 | 4.46 | 2.313 | 2.31 | 2.37 | 73.10 |  | 2.20 |  | 4.279 | 4.28 | 39.6 | 
